Laboratory results published in patent publication US20100285963A1, “SUBSTITUTED FLUOROALKOXYPHENYLSULFONYLUREAS” (priority 2001, published 2010).
Where a name gives a salt, the structure may show the parent alone.

What was measured:
[1] = test system: crop plants, such as, for example, wheat and soya; assay: Pre-emergence test (greenhouse), tolerance by crop plants; type: in vivo; details: after three weeks
Procedure: (§1) Solvent: 5 parts by weight of acetone
(§2) Emulsifier: 1 part by weight of alkylaryl polyglycol ether
(§3) To produce a suitable preparation of active compound, 1 part by weight of active compound is mixed with the stated amount of solvent, the stated amount of emulsifier is added and the concentrate is diluted with water to the desired concentration.
(§4) Seeds of the test plants are sown in normal soil. After 24 hours, the soil is sprayed with the preparation of active compounds such that the particular amount of active compound desired is applied per unit area. The concentration of active compound in the spray liquor is chosen such that the particular amount of active compound desired is applied in 1000 liters of water per hectare.
(§5) After three weeks, the degree of damage to the plants is rated in % damage in comparison to the development of the untreated control. The figures denote: • 0%=no effect (like untreated control) • 100%=total destruction

weeds [2] = assay: Post-emergence test (greenhouse), damage to weeds; type: in vivo; details: for activity against weeds: test plants of 5-15 cm sprayed, rated after three weeks as % damage vs untreated control
Procedure: as §1, §2
(§6) To product a suitable preparation of active compound, 1 part by weight of active compound is mixed with the stated amount of solvent, the stated amount of emulsifier is added and the concentrate is diluted with water to the desired concentration.
(§7) Test plants of a height of 5-15 cm are sprayed with the preparation of active compound such that the particular amounts of active compound desired are applied per unit area. The concentration of the spray liquor is chosen such that the particular amounts of active compound desired are applied in 10001 of water/ha.
(§8) After three weeks, the degree of damage to the plants is rated in % damage in comparison to the development of the untreated control.
(§9) The figures denote: • 0%=no effect (like untreated control) • 100%=total destruction

weeds [3] = assay: Pre-emergence test (greenhouse), damage to weeds; type: in vivo; details: for activity against weeds: soil sprayed 24 hours after sowing, rated after three weeks as % damage vs untreated control
Procedure: as §1, §2, §3, §4, §5

[4] = test system: crop plants, such as, for example, corn, wheat and sugar beet; assay: Post-emergence test (greenhouse), tolerance by crop plants; type: in vivo; details: after three weeks
Procedure: as §1, §2, §6, §7, §8, §9

[5] = test system: apple mildew pathogen Podosphaera leucotricha; assay: Podosphaera test (apple)/protective; type: in vivo; details: protective; for efficacy against mildew of apples (Podosphaera leucotricha): application rate of 100 g/ha, evaluation 10 days after the inoculation; for % efficacy: apple, application rate 100 g/ha, 10 days after inoculation
Procedure: Solvent: 49 parts by weight of acetone
as §2
To produce a suitable preparation of active compound, 1 part by weight of active compound is mixed with the stated amounts of solvent and emulsifier, and the concentrate is diluted with water to the desired concentration.
To test for protective activity, young plants are sprayed with the preparation of active compound at the stated application rate. After the spray coating has dried on, the plants are inoculated with an aqueous spore suspension of the apple mildew pathogen Podosphaera leucotricha. The plants are then placed in a greenhouse at about 23° C. and a relative atmospheric humidity of about 70%.
Evaluation is carried out 10 days after the inoculation. 0% means an efficacy which corresponds to that of the control, whereas an efficacy of 100% means that no infection is observed.

[6] = 30 g of a.i./ha, after three weeks, Table B7
[7] = 15 g of a.i./ha, after three weeks, Table A2
[8] = 30 g of a.i./ha, after three weeks, Table B2
[9] = 30 g of a.i./ha, after three weeks
[10] = 8 g of a.i./ha, after three weeks, Table B6
[11] = 30 g of a.i./ha, after three weeks, Table B5
[12] = 60 g of a.i./ha, after three weeks, Table A6
[13] = 8 g of a.i./ha, after three weeks, Table B3
[14] = 15 g of a.i./ha, after three weeks
[15] = 125 g of a.i./ha, after three weeks
[16] = 250 g of a.i./ha, after three weeks

Work on `COc1nc(C)nc(NC(=O)NS(=O)(=O)c2c(C)cccc2OCCF)n1` (as salt: sodium) [Example 2, N-[2-(2-fluoroethoxy)-6-methylphenyl-sulfonyl]-M-(4-methoxy-6-methyl-1,3,5-triazin-2-yl)urea sodium salt] yielded a melting point of 185 °C.
For `COc1cc(OC)nc(NC(=O)NS(=O)(=O)c2c(OCCF)cccc2C(F)(F)F)n1` [(4)], the “% damage Soya” value ([1]; 15 g of a.i./ha) was 0%, the “% damage Wheat” value ([1]; 15 g of a.i./ha) was 0% and the “% damage Abutilon” value (weeds [2]; [6]) was 95%. For the same molecule, the “% damage Alopecurus” value (weeds [2]; [6]) was 90%, the “% damage Amaranthus” value (weeds [2]; [6]) was 100% and the “% damage Ipomoea” value (weeds [2]; [6]) was 95%. The “% damage Matricaria” value (weeds [2]; [6]) was 100%, the “% damage Viola” value (weeds [2]; [6]) was 95% and the “% damage Alopecurus” value (weeds [3]; [7]) was 80%. For the same molecule, the “% damage Chenopodium” value (weeds [3]; [7]) was 100%, the “% damage Matricaria” value (weeds [3]; [7]) was 100% and the “% damage Sorghum” value (weeds [3]; [7]) was 80%. The “% damage Viola” value (weeds [3]; [7]) was 100%.
In the case of `CCCc1cccc(OCCCF)c1S(=O)(=O)NC(=O)Nc1nc(C)nc(OC)n1` [(7)], the “% damage Wheat” value ([1]; 30 g of a.i./ha) is reported as 0%, the “% damage Abutilon” value (weeds [2]; [8]) is reported as 100% and the “% damage Alopecurus” value (weeds [2]; [8]) is reported as 90%. For the same molecule, the “% damage Amaranthus” value (weeds [2]; [8]) was 100%, the “% damage Datura” value (weeds [2]; [8]) was 100% and the “% damage Solanum” value (weeds [2]; [8]) was 100%. The “% damage Chenopodium” value (weeds [3]; [9]) was 90%, the “% damage Echinochloa” value (weeds [3]; [9]) was 90% and the “% damage Galium” value (weeds [3]; [9]) was 90%. The “% damage Stellaria” value (weeds [3]; [9]) was 100%, the “% damage Viola” value (weeds [3]; [9]) was 100% and the “% damage Wheat” value ([4]; 30 g of a.i./ha, Table B2) was 0%.
In the case of `CCCc1cccc(OCCCF)c1S(=O)(=O)NC(=O)Nc1nc(OC)nc(OC)n1` [(8)], the “% damage Wheat” value ([1]; 30 g of a.i./ha) is reported as 0%, the “% damage Datura” value (weeds [2]; [10]) is reported as 90% and the “% damage Ipomoea” value (weeds [2]; [10]) is reported as 100%. The “% damage Matricaria” value (weeds [2]; [10]) was 95%, the “% damage Solanum” value (weeds [2]; [10]) was 100% and the “% damage Stellaria” value (weeds [2]; [10]) was 95%. For the same molecule, the “% damage Chenopodium” value (weeds [3]; [9]) was 90%, the “% damage Galium” value (weeds [3]; [9]) was 90% and the “% damage Stellaria” value (weeds [3]; [9]) was 100%. For the same molecule, the “% damage Viola” value (weeds [3]; [9]) was 100%, the “% damage Maize” value ([4]; 8 g of a.i./ha, Table B6) was 10% and the “% damage Wheat” value ([4]; 8 g of a.i./ha, Table B6) was 0%.
In the case of `COc1cc(Cl)nc(NC(=O)NS(=O)(=O)c2c(C)cccc2OCCCF)n1` [(14)], the “% damage Amaranthus” value (weeds [2]; [11]) is reported as 100%, the “% damage Ipomoea” value (weeds [2]; [11]) is reported as 95% and the “% damage Matricaria” value (weeds [2]; [11]) is reported as 90%. For the same molecule, the “% damage Abutilon” value (weeds [3]; [12]) was 95%, the “% damage Alopecurus” value (weeds [3]; [12]) was 100% and the “% damage Amaranthus” value (weeds [3]; [12]) was 95%. The “% damage Echinochloa” value (weeds [3]; [12]) was 100%, the “% damage Galium” value (weeds [3]; [12]) was 90% and the “% damage Sinapis” value (weeds [3]; [12]) was 95%. For the same molecule, the “% damage Sugar beet” value ([4]; 30 g of a.i./ha, Table B5) was 0% and the “% damage Wheat” value ([4]; 30 g of a.i./ha, Table B5) was 0%.
For `CCc1cccc(OCCCF)c1S(=O)(=O)NC(=O)Nc1nc(C)nc(OC)n1` [(17)], the “% damage Abutilon” value (weeds [2]; [13]) was 100%, the “% damage Ipomoea” value (weeds [2]; [13]) was 100% and the “% damage Lolium” value (weeds [2]; [13]) was 90%. The “% damage Matricaria” value (weeds [2]; [13]) was 100%, the “% damage Solanum” value (weeds [2]; [13]) was 100% and the “% damage Stellaria” value (weeds [2]; [13]) was 100%. The “% damage Abutilon” value (weeds [3]; [12]) was 95%, the “% damage Alopecurus” value (weeds [3]; [12]) was 95% and the “% damage Amaranthus” value (weeds [3]; [12]) was 95%. For the same molecule, the “% damage Echinochloa” value (weeds [3]; [12]) was 95%, the “% damage Galium” value (weeds [3]; [12]) was 95% and the “% damage Sinapis” value (weeds [3]; [12]) was 90%. For the same molecule, the “% damage Wheat” value ([4]; 8 g of a.i./ha, Table B3) was 10%.
For `CCc1cccc(OCCCF)c1S(=O)(=O)NC(=O)Nc1nc(Cl)cc(OC)n1` [(18)], the “% damage Abutilon” value (weeds [2]; [14]) was 90%, the “% damage Amaranthus” value (weeds [2]; [14]) was 95% and the “% damage Matricaria” value (weeds [2]; [14]) was 95%. For the same molecule, the “% damage Xanthium” value (weeds [2]; [14]) was 90% and the “% damage Wheat” value ([4]; 15 g of a.i./ha) was 15%.
For `CCCc1cccc(OCCCF)c1S(=O)(=O)NC(=O)Nc1nc(OC)cc(OC)n1` [(25)], the “% damage Wheat” value ([1]; 125 g of a.i./ha) was 0%, the “% damage Abutilon” value (weeds [2]; [15]) was 95% and the “% damage Alopecurus” value (weeds [2]; [15]) was 90%. The “% damage Amaranthus” value (weeds [2]; [15]) was 100%, the “% damage Datura” value (weeds [2]; [15]) was 100% and the “% damage Solanum” value (weeds [2]; [15]) was 100%. The “% damage Abutilon” value (weeds [2]; [16]) was 100%, the “% damage Alopecurus” value (weeds [2]; [16]) was 90% and the “% damage Amaranthus” value (weeds [2]; [16]) was 100%. The “% damage Avena fatua” value (weeds [2]; [16]) was 90%, the “% damage Galium” value (weeds [2]; [16]) was 100% and the “% damage Setaria” value (weeds [2]; [16]) was 100%. For the same molecule, the “% damage Sinapis” value (weeds [2]; [16]) was 100%, the “% damage Chenopodium” value (weeds [3]; [15]) was 90% and the “% damage Datura” value (weeds [3]; [15]) was 90%. For the same molecule, the “% damage Echinochloa” value (weeds [3]; [15]) was 90%, the “% damage Stellaria” value (weeds [3]; [15]) was 90% and the “% damage Viola” value (weeds [3]; [15]) was 100%. For the same molecule, the “% damage Alopecurus” value (weeds [3]; [16]) was 95%, the “% damage Amaranthus” value (weeds [3]; [16]) was 100% and the “% damage Avena fatua” value (weeds [3]; [16]) was 90%. For the same molecule, the “% damage Galium” value (weeds [3]; [16]) was 95%, the “% damage Setaria” value (weeds [3]; [16]) was 100% and the “% damage Xanthium” value (weeds [3]; [16]) was 100%. For the same molecule, the “% damage Wheat” value ([4]; 125 g of a.i./ha) was 10%.
With `COc1nc(C)nc(NC(=O)NS(=O)(=O)c2c(C)cccc2OCCF)n1` [Example 1, N-[2-(2-fluoroethoxy)-6-methylphenylsulfonyl]-N′-(4-methoxy-6-methyl-1,3,5-triazin-2-yl)urea] the activity against weeds (weeds [2]) was “very strong activity”, the activity against weeds (weeds [3]) was “very strong activity” and the “efficacy against mildew of apples (Podosphaera leucotricha)” value (“efficacy against mildew of apples” for short) [5] was 100%. It also gave a melting point of 161 °C.
With `COc1cc(OC)nc(NC(=O)NS(=O)(=O)c2c(C)cccc2OCCF)n1` [Example 24] the activity against weeds (weeds [2]) was “very strong activity”, the activity against weeds (weeds [3]) was “very strong activity” and the “efficacy against mildew of apples” value [5] was 100%.
With `CCCc1cccc(OCCCF)c1S(=O)(=O)NC(=O)Nc1nc(OC)cc(OC)n1` [Example 25] the activity against weeds (weeds [2]) was “very strong activity”, the activity against weeds (weeds [3]) was “very strong activity” and the “efficacy against mildew of apples” value [5] was 100%.
With `CCCc1cccc(OCCF)c1S(=O)(=O)NC(=O)Nc1nc(OC)cc(OC)n1` [Example 26] the activity against weeds (weeds [2]) was “very strong activity”, the activity against weeds (weeds [3]) was “very strong activity” and the “efficacy against mildew of apples” value [5] was 100%.
In the case of `COc1cc(OC)nc(NC(=O)NS(=O)(=O)c2c(C)cccc2OCCF)n1` [drawing 17], the “% efficacy” value [5] is reported as 100%.
For `COc1nc(C)nc(NC(=O)NS(=O)(=O)c2c(C)cccc2OCCF)n1` [drawing 18], the “% efficacy” value [5] was 100%.
In the case of `CCCc1cccc(OCCCF)c1S(=O)(=O)NC(=O)Nc1nc(OC)cc(OC)n1` [drawing 19], the “% efficacy” value [5] is reported as 100%.
With `CCCc1cccc(OCCF)c1S(=O)(=O)NC(=O)Nc1nc(OC)cc(OC)n1` [drawing 20] the “% efficacy” value [5] was 100%.
